Measured values taken from the NIST ThermoML archive (doi:10.1021/je050514j).

Key:
[1] = xn = mol fraction of the nth substance listed; conditions: 313.15 K, Fluid (supercritical or subcritical phases), x1 = 1
[2] = refractive index (Na D-line) (dimensionless); conditions: 298.15 K; 101.33 kPa; Liquid; Standard Abbe refractometry

O=C=O [carbon dioxide]
313.15 K, Fluid (supercritical or subcritical phases)
Conditions	mass density [kg/m3]
1000 kPa	17.8
2000 kPa	37.3
3000 kPa	58.6
4000 kPa	83.4
5000 kPa	112.5
6000 kPa	148.7
7000 kPa	197.5
8000 kPa	276.7
9000 kPa	482.6
10000 kPa	627.3

O=C=O [carbon dioxide] + CCOC(C)=O
[1]
Conditions	mass density [kg/m3]
1000 kPa	17.8
2000 kPa	37.3
3000 kPa	58.6
4000 kPa	83.4
5000 kPa	112.5
6000 kPa	148.7
7000 kPa	197.5
8000 kPa	276.7
9000 kPa	482.6
10000 kPa	627.3

CCOC(C)=O [ethyl acetate]
Conditions	mass density [kg/m3]
298.15 K, 101.33 kPa, Liquid	894.4
313.15 K, 1000 kPa, Fluid (supercritical or subcritical phases)	876.9
313.15 K, 2000 kPa, Fluid (supercritical or subcritical phases)	878
313.15 K, 3000 kPa, Fluid (supercritical or subcritical phases)	878.9
313.15 K, 4000 kPa, Fluid (supercritical or subcritical phases)	880
313.15 K, 5000 kPa, Fluid (supercritical or subcritical phases)	881
313.15 K, 6000 kPa, Fluid (supercritical or subcritical phases)	881.9
313.15 K, 7000 kPa, Fluid (supercritical or subcritical phases)	882.9
313.15 K, 8000 kPa, Fluid (supercritical or subcritical phases)	883.9
313.15 K, 9000 kPa, Fluid (supercritical or subcritical phases)	884.9
313.15 K, 10000 kPa, Fluid (supercritical or subcritical phases)	885.9

Conditions	Normal boiling temperature [°C]
Liquid, ebulliometry	77.06

Conditions	refractive index
[2]	1.3702
